Series [1] has as its system Plasmodium falciparum. The series can be described thus: Antiplasmodial activity against Plasmodium falciparum 3D7 assessed as reduction in parasite viability by parasite lactate dehydrogenase assay. It is filed as functional, organism-based.
The test system of series [2] is Trypanosoma brucei brucei. Briefly: Antitrypanosomal activity against Trypanosoma brucei brucei Lister 427 bloodstream forms by microtiter plate based assay. It is filed as functional, organism-based.
A short description of series [3]: Selectivity index, ratio of IC50 against human WI38 cells to IC50 for Plasmodium falciparum 3D7. It is filed as toxicity, cell-based, WI-38. Particulars: read-out: Ratio IC50.
A short description of series [4]: Cytotoxicity against human WI38 cells by MTT assay. It is filed as cell-based, WI-38. Particulars: Homo sapiens, WI-38; read-out: IC50. (In general: Formazan colour is commonly taken as a measure of viable cells.)
Series [5] deals with Trypanosoma brucei brucei. Briefly: Potency index, ratio of IC50 for CN to IC50 for test compound against Trypanosoma brucei brucei Lister 427 bloodstream forms by microtiter plate based assay. It is filed as functional.
Series [6] deals with Plasmodium falciparum. The series can be described thus: Potency index, ratio of IC50 for CN to IC50 for test compound against Plasmodium falciparum 3D7 by parasite lactate dehydrogenase assay. It is filed as functional.
The nature of series [7]: in vitro. Particulars: human, WI38 cells.
Description: Selectivity index, ratio of IC50 against human WI38 cells to IC50 for Trypanosoma brucei brucei Lister 427 bloodstream forms
Series [8] deals with Trypanosoma brucei brucei. The series can be described thus: Potency index, ratio of IC50 for QND to IC50 for test compound against Trypanosoma brucei brucei Lister 427 bloodstream forms by microtiter plate based assay. It is filed as functional.
Series [9] deals with Plasmodium falciparum. Briefly: Potency index, ratio of IC50 for QND to IC50 for test compound against Plasmodium falciparum 3D7 by parasite lactate dehydrogenase assay. It is filed as functional.
Series [10] concerns Trypanosoma brucei brucei. The series can be described thus: Potency index, ratio of IC50 for QN to IC50 for test compound against Trypanosoma brucei brucei Lister 427 bloodstream forms by microtiter plate based assay. It is filed as functional.
Series [11] has as its system Plasmodium falciparum. Briefly: Potency index, ratio of IC50 for QN to IC50 for test compound against Plasmodium falciparum 3D7 by parasite lactate dehydrogenase assay. It is filed as functional.

The values that follow come from ChEMBL document CHEMBL3588788, “Structure-activity relationship of hybrids of Cinchona alkaloids and bile acids with in vitro antiplasmodial and antitrypanosomal activities” (Eur J Med Chem, 2015).

SMILES strings stand for the structures.

By IC50 is commonly meant the concentration that gives 50% inhibition. Regarding `C=C[C@H]1CN2CC[C@H]1C[C@@H]2[C@@H](O)c1cc(CC[C@@H](C)[C@H]2CC[C@H]3[C@@H]4CC[C@@H]5C[C@H](OC(C)=O)CC[C@]5(C)[C@H]4C[C@H](OC(C)=O)[C@]23C)nc2ccccc12`, the half-inhibitory concentration (IC50) in [1] is 0.171 µM; in series [2] it was 1.51 µM; in series [4], 4.8 µM. For the same molecule, the results for the selectivity ratio in series [3] and in [7] were 28.1 and 3.2, respectively. Further, the “Ratio IC50” value in series [5] was 45.1; in series [6] it was 1.7.
`C=C[C@H]1CN2CC[C@H]1C[C@@H]2[C@@H](O)c1cc(CC[C@@H](C)[C@H]2CC[C@H]3[C@@H]4[C@H](O)[C@H](O)[C@@H]5C[C@H](O)CC[C@]5(C)[C@H]4CC[C@]23C)nc2ccccc12`: the figures for the concentration for half-maximal inhibition (IC50) in series [1], in series [2] and in [4] were 0.183 µM, 1.81 µM and 5.68 µM, respectively. Further, the figures for the selectivity ratio in series [3] and in [7] were 31 and 3.1, respectively. In addition, the results for the “Ratio IC50” value in series [5] and in [6] were 37.6 and 1.6, respectively.
As to `C=C[C@H]1CN2CC[C@H]1C[C@@H]2[C@@H](O)c1cc(CC[C@@H](C)[C@H]2CC[C@H]3[C@@H]4[C@H](O)C[C@@H]5C[C@H](O)CC[C@]5(C)[C@H]4C[C@H](O)[C@]23C)nc2ccccc12`, the figures for the concentration for half-maximal inhibition (IC50) in series [1], in series [2] and in series [4] were 0.592 µM, 1.1 µM and 5.68 µM, respectively. For the same molecule, the selectivity ratio stood at 10 in series [3] and 5.2 in series [7]. For the same molecule, the “Ratio IC50” value in series [5] turned out to be 61.8; in series [6] it was 0.5.
Regarding `C=C[C@H]1CN2CC[C@H]1C[C@@H]2[C@@H](O)c1cc(CC[C@@H](C)[C@H]2CC[C@H]3[C@@H]4[C@H](OC(C)=O)[C@H](OC(C)=O)[C@@H]5C[C@H](OC(C)=O)CC[C@]5(C)[C@H]4CC[C@]23C)nc2ccc(OC)cc12`, the “Ratio IC50” value in series [8] is on record as 46.2; in series [9] it was 2.7. Also, the IC50 in [1] is 0.0732 µM; in [2], 0.56 µM; in series [4] it was 3.29 µM. The selectivity ratio in series [3] was 45; in [7] it was 5.8.
Turning to `C=C[C@H]1CN2CC[C@H]1C[C@@H]2[C@@H](O)c1cc(CC[C@@H](C)[C@H]2CC[C@H]3[C@@H]4[C@H](O)C[C@@H]5C[C@H](O)CC[C@]5(C)[C@H]4C[C@H](O)[C@]23C)nc2ccc(OC)cc12`, the “Ratio IC50” value in [8] worked out at 21.6; in series [9], 0.3. Further, the IC50 worked out at 0.7 µM in series [1], 1.21 µM in [2] and 11.8 µM in [4]. The selectivity ratio in series [3] was found to be 17; in series [7] it was 9.8.
For the molecule `C=C[C@H]1CN2CC[C@H]1C[C@@H]2[C@@H](O)c1cc(CC[C@@H](C)[C@H]2CC[C@H]3[C@@H]4CC[C@@H]5C[C@H](OC(C)=O)CC[C@]5(C)[C@H]4C[C@H](OC(C)=O)[C@]23C)nc2ccc(OC)cc12`, the “Ratio IC50” value in [8] was found to be 37.5; in [9], 1. Moreover, the concentration for half-maximal inhibition (IC50) in series [1] was determined as 0.195 µM; in series [2], 0.69 µM; in [4], 5.33 µM. Further, the selectivity ratio in series [3] came out at 27; in [7], 7.7.
Turning to `C=C[C@H]1CN2CC[C@H]1C[C@H]2[C@H](O)c1cc(CC[C@@H](C)[C@H]2CC[C@H]3[C@@H]4CC[C@@H]5C[C@H](OC(C)=O)CC[C@]5(C)[C@H]4C[C@H](OC(C)=O)[C@]23C)nc2ccc(OC)cc12`, the values for the IC50 in [1], in series [2] and in series [4] were 0.197 µM, 1.47 µM and 4.41 µM, respectively. For the same molecule, the results for the selectivity ratio in [3] and in series [7] were 22 and 3, respectively. Moreover, the figures for the “Ratio IC50” value in series [10] and in series [11] were 14.4 and 3.2, respectively.
Turning to `C=C[C@H]1CN2CC[C@H]1C[C@H]2[C@H](O)c1cc(CC[C@@H](C)[C@H]2CC[C@H]3[C@@H]4[C@H](OC(C)=O)C[C@@H]5C[C@H](OC(C)=O)CC[C@]5(C)[C@H]4C[C@H](OC(C)=O)[C@]23C)nc2ccc(OC)cc12`, the concentration for half-maximal inhibition (IC50) turned out to be 0.0435 µM in series [1], 0.48 µM in [2] and 4.47 µM in [4]. In addition, the values for the selectivity ratio in series [3] and in [7] were 103 and 9.3, respectively. In addition, the entries for the “Ratio IC50” value in series [10] and in series [11] were 44.1 and 14.6, respectively.
Take `C=C[C@H]1CN2CC[C@H]1C[C@@H]2[C@@H](O)c1cc(CC[C@@H](C)[C@H]2CC[C@H]3[C@@H]4C[C@H](O)[C@@H]5C[C@H](O)CC[C@]5(C)[C@H]4CC[C@]23C)nc2ccc(OC)cc12`: the results for the “Ratio IC50” value in series [8] and in series [9] were 29.2 and 1.6, respectively. Besides, the IC50 in series [1] worked out at 0.123 µM; in series [2] it was 0.89 µM; in series [4], 2.2 µM. Also, the selectivity ratio in series [3] came to 18; in series [7], 2.5.
As for `C=C[C@H]1CN2CC[C@H]1C[C@@H]2[C@@H](O)c1cc(CC[C@@H](C)[C@H]2CC[C@H]3[C@@H]4[C@H](OC(C)=O)C[C@@H]5C[C@H](OC(C)=O)CC[C@]5(C)[C@H]4C[C@H](OC(C)=O)[C@]23C)nc2ccc(OC)cc12`, the entries for the “Ratio IC50” value in series [8] and in [9] were 48.8 and 2.3, respectively. Moreover, the half-maximal inhibitory concentration (IC50) in [1] was found to be 0.0838 µM; in [2], 0.53 µM; in series [4], 4.66 µM. For the same molecule, the selectivity ratio in [3] worked out at 56; in series [7] it was 8.7.
For `C=C[C@H]1CN2CC[C@H]1C[C@H]2[C@H](O)c1cc(CC[C@@H](C)[C@H]2CC[C@H]3[C@@H]4[C@H](O)C[C@@H]5C[C@H](O)CC[C@]5(C)[C@H]4C[C@H](O)[C@]23C)nc2ccc(OC)cc12`, the 50% inhibitory concentration (IC50) in series [1] worked out at 1.82 µM; in series [2], 1.57 µM; in series [4] it was 19.3 µM. In addition, the selectivity ratio in series [3] was 11; in series [7], 12.3. The “Ratio IC50” value in series [10] is given as 13.5; in [11], 0.3.
For the molecule `C=C[C@H]1CN2CC[C@H]1C[C@@H]2[C@@H](O)c1cc(CC[C@@H](C)[C@H]2CC[C@H]3[C@@H]4CC[C@@H]5C[C@H](O)CC[C@]5(C)[C@H]4C[C@H](O)[C@]23C)nc2ccc(OC)cc12`, the “Ratio IC50” value in series [8] is recorded as 42.7; in [9] it was 0.7. Also, the half-maximal inhibitory concentration (IC50) was found to be 0.281 µM in series [1], 0.61 µM in series [2] and 4.3 µM in series [4]. For the same molecule, the selectivity ratio in [3] is 15; in [7], 7.1.
Turning to `C=C[C@H]1CN2CC[C@H]1C[C@H]2[C@H](O)c1cc(CC[C@@H](C)[C@H]2CC[C@H]3[C@@H]4C[C@H](OC(C)=O)[C@@H]5C[C@H](OC(C)=O)CC[C@]5(C)[C@H]4CC[C@]23C)nc2ccc(OC)cc12`, the values for the IC50 in series [1], in series [2] and in series [4] were 0.46 µM, 1.49 µM and 5.86 µM, respectively. Besides, the selectivity ratio in series [3] came to 13; in series [7], 3.9. Besides, the figures for the “Ratio IC50” value in series [10] and in series [11] were 14.3 and 1.4, respectively.
`C=C[C@H]1CN2CC[C@H]1C[C@@H]2[C@@H](O)c1cc(CC[C@@H](C)[C@H]2CC[C@H]3[C@@H]4C[C@H](OC(C)=O)[C@@H]5C[C@H](OC(C)=O)CC[C@]5(C)[C@H]4CC[C@]23C)nc2ccc(OC)cc12`: the “Ratio IC50” value in [8] was 17.7; in [9], 1.3. Further, the results for the IC50 in series [1], in [2] and in series [4] were 0.155 µM, 1.47 µM and 4.49 µM, respectively. Besides, the selectivity ratio in series [3] amounted to 29; in series [7] it was 3.1.
Regarding `C=C[C@H]1CN2CC[C@H]1C[C@H]2[C@H](O)c1cc(CC[C@@H](C)[C@H]2CC[C@H]3[C@@H]4CC[C@@H]5C[C@H](O)CC[C@]5(C)[C@H]4C[C@H](O)[C@]23C)nc2ccc(OC)cc12`, the results for the IC50 in series [1], in [2] and in [4] were 0.241 µM, 0.64 µM and 5.2 µM, respectively. Besides, the selectivity ratio is 22 in series [3] and 8.2 in series [7]. For the same molecule, the “Ratio IC50” value in [10] came out at 33.3; in series [11] it was 2.6.
Regarding `C=C[C@H]1CN2CC[C@H]1C[C@@H]2[C@@H](O)c1cc(CC[C@@H](C)[C@H]2CC[C@H]3[C@@H]4[C@H](O)[C@H](O)[C@@H]5C[C@H](O)CC[C@]5(C)[C@H]4CC[C@]23C)nc2ccc(OC)cc12`, the “Ratio IC50” value in series [8] is 33.9; in series [9] it was 1.1. In addition, the IC50 in series [1] amounted to 0.17 µM; in series [2] it was 0.77 µM; in [4], 4.75 µM. For the same molecule, the selectivity ratio in series [3] stood at 27.9; in [7] it was 6.2.
